Reference: patent US20230000811A1, “COMPOSITIONS FOR DISRUPTING BIOFILM FORMATION AND FOR TREATING BIOFILM-RELATED DISORDERS” (AHV International B.V., priority 2020, published 2023)

Tests used:
Type in all cases: cell-based
[1] = test system: heterotrophic microbial biofilm; assay: Biofilm eradication in PBR (photobioreactor), released CFU's
Description: In order to determine the anti-biofilm effect of PTSO, PTS and DPD (dipropyl disulfide), a biofilm was grown under controlled conditions in a glass tube reactor, the PBR. A photobioreactor was used as model system because biofilm formation was clearly visible in the glass tubes. After a mature biofilm was formed, increasing levels of pure PTSO, PTS or DPD were added and the biofilm was removed by titration of pure PTSO, PTS or DPD and the dosages were determined that the biofilm was eradicated. Hereafter, the microbial composition was determined of the biofilm by deep sequencing.
Heterotrophic microbial biofilm: a biofilm was cultivated in a 26.5-liter glass photobioreactor (PBR) with a tube length of 37-meter incl. bends (the GemTube RD-25 Glass of LGEM). The PBR was filled with 22 liters of not sterilized medium (fable 1).
The medium further contained 1 g/l glucose. Inoculation took place by the adding 500 ml ditch water from the Zuidpolder near Delfgauw. Air was pumped in with a rate of 1.0 liter/min: at this setting the medium circulation through the PBR in the medium was as low as possible but there was a stable hold-up to realize medium circulation in the PBR. The PBR was covered with a dark plastic screen to prevent exposure to the light. Incubation took place at 12-18° C. and pH was controlled 5 times per week to 5.2-5.7, once per 1.5 day. After a total dosage of 5 g/l glucose, (after 1 week) a slimy layer (biofilm) was formed that covers the whole inner surface of the glass tube. The medium was replaced by fresh medium without glucose when the biofilm was formed.
Pure PTSO and PTS were obtained as is indicated in example 1 and stable solutions were prepared in water by sonication of 1000× diluted mixtures. DPD (dipropyl disulfide >98% pure) was supplied by Sigma. After each addition step the biofilm culture was incubated for 24 hours to observe the stability of the biofilm.
The numbers of aerobic, anaerobic/micro-aerophilic and fungal CFU's in the biofilm and supernatant were determined according to standard operating procedures as follows: for aerobic colony forming units per ml (CFU/ml) see https://www.iso.org/standard/53728.html; for the determination of anaerobic CFU's/ml see https://www.thermofisher.com/order/catalog/product/AN0025A#HAN0025A (the plates are incubated in an oxygen-free container) and with respect to the numbers of colony forming unites for fungi see http://edgeanalytical.com/wp-content/uploads/Food_AOAC-997.02.pdf (see Table 2).
Another sample of the biofilm was drawn and a part was stored at minus 80 degrees as inoculum material for further studies. The other part of the biofilm was dissolved by gentle sonification and used to determine the aerobic, anaerobic and fungal numbers of colony forming units as described above. Hereafter it was calculated whether the numbers of colony forming microorganisms in the medium corresponded with the number of microorganisms in the biofilm prior to the treatment. In this way it was calculated whether the microorganisms were killed by the treatments, or that the bacteria remained alive and that only the biofilm was solubilized.
In order to investigate whether PTSO has a destabilizing effect of the biofilm or simply kills the microorganisms, samples were drawn from the biofilm before the treatments and samples of the liquid medium were drawn before and after treatment and were inoculated as described above to determine the number of colony forming units. Hereafter it was calculated whether the numbers of colony forming microorganisms in the medium corresponded with the number of microorganisms in the biofilm prior to the treatment. In this way it was calculated whether the microorganisms are killed by the treatments, or that the bacteria remained alive and that only the biofilm was solubilized (fable 6).

[2] = test system: Staphylococcus aureus strains; assay: MBEC (biofilm eradication)
Description: (§1) In this example the following bacterial strains were used: Staphyllococcus aureus ATCC 25923 obtained from the ATCC collection; Staphyllococcus aureus 074 was kindly provided by prof. Fink, Faculty of Veterinary Medicine, Utrecht University, the Netherlands, described as a clinical isolate from cows with mastitis. Information for the strain is further given in: Melchior, M. B., Fink-Gremmels, J., & Gaastra, W. (2006). Comparative Assessment of the Antimicrobial Susceptibility of Staphylococcus aureus Isolates from Bovine Mastitis in Biofilm Versus Planktonic Culture. Journal of Veterinary Medicine Series B, 53(7), 326-332; Staphyllococcus aureus ATCC 15564 obtained from the ATCC collection and Streptococcus uberis clinical isolate from a cow with mastitis, part from the collection of Department of Veterinary Microbiology, Infectious and Parasitic Diseases, Trakia University, Bulgary.
(§2) Minimum Biofilm Inhibitory Concentration (MBIC) and Microtiter Biofilm Eradication concentration (MBEC) are defined and measured as indicated in table 7.
(§3) Applying the methods as summarised in table 7, the above-mentioned bacteria were tested with PTSO/PTS enriched plant extract, pure PTSO, and pure PTS as described in example 1 and DPD as described in example 2.

Streptococcus uberis [3] = assay: MBEC (biofilm eradication); details: Str. uberis clinical isolate
Description: as §1, §2, §3

[4] = test system: Staphylococcus aureus strains; assay: MBIC 90 (minimum biofilm inhibitory concentration)
Description: as §1, §2, §3

Streptococcus uberis [5] = assay: MBIC 90 (minimum biofilm inhibitory concentration); details: Str. uberis clinical isolate
Description: as §1, §2, §3

[6] = PTSO cumulative dosage 0.05 ul/l culture (dose 0.05), day 2
[7] = PTSO cumulative dosage 0.15 ul/l culture (dose 0.1), day 6
[8] = PTSO cumulative dosage 0.65 ul/l culture (dose 0.5), day 8
[9] = PTSO cumulative dosage 1.65 ul/l culture (dose 1.0), day 13
[10] = PTSO cumulative dosage 3.65 ul/l culture (dose 2.0), day 15
[11] = after 208 mg pure DPD/liter culture
[12] = total dose DPD (cumulative) 1 ul/l (dose 0.50)
[13] = total dose DPD (cumulative) 2 ul/l (dose 1.00)
[14] = total dose DPD (cumulative) 7 ul/l (dose 5.00)
[15] = total dose DPD (cumulative) 17 ul/l (dose 10.00)
[16] = total dose DPD (cumulative) 67 ul/l (dose 50.00)
[17] = total dose DPD (cumulative) 117 ul/l (dose 50.00)
[18] = total dose DPD (cumulative) 167 ul/l (dose 50.00)
[19] = total dose DPD (cumulative) 217 ul/l (dose 50.00)
[20] = total dose DPD (cumulative) 267 ul/l (dose 50.00)
[21] = total dose DPD (cumulative) 317 ul/l (dose 50.00)
[22] = total dose DPD (cumulative) 367 ul/l (dose 50.00)
[23] = total dose DPD (cumulative) 417 ul/l (dose 50.00)
[24] = total dose DPD (cumulative) 467 ul/l (dose 50.00)
[25] = total dose DPD (cumulative) 517 ul/l (dose 50.00)

CCCSS(=O)(=O)CCC (single isomer, unassigned) [PTSO, propyl-propane thiosulfonate]
Aerobic CFU's after 24 hours [1, 6]: 2,033 ×1000 | Anaerobic CFU's after 24 hour [1, 6]: 383 ×1000 | Fungal CFU's after 24 hours [1, 6]: 150 ×1000 | Aerobic CFU's after 24 hours [1, 7]: 3,367 ×1000 | Anaerobic CFU's after 24 hour [1, 7]: 750 ×1000 | Fungal CFU's after 24 hours [1, 7]: 150 ×1000 | Aerobic CFU's after 24 hours [1, 8]: 6,267 ×1000 | Anaerobic CFU's after 24 hour [1, 8]: 1,127 ×1000 | Fungal CFU's after 24 hours [1, 8]: 517 ×1000 | Aerobic CFU's after 24 hours [1, 9]: 17,333 ×1000 | Anaerobic CFU's after 24 hour [1, 9]: 4,400 ×1000 | Fungal CFU's after 24 hours [1, 9]: 20,333 ×1000 | Aerobic CFU's after 24 hours [1, 10]: 5,867 ×1000 | Anaerobic CFU's after 24 hour [1, 10]: 2,933 ×1000 | Fungal CFU's after 24 hours [1, 10]: 1,567 ×1000 | Total (released from biofilm) colony forming units/ml, In culture supernatant ([1]; after 0.9 mg pure PTSO/liter culture): 42,000 units/ml (×1000) | Total colony forming units/ml, In biofilm ([1]; after 0.9 mg pure PTSO/liter culture, 0* means biofilm had disappeared): 0* units/ml (×1000) | % volume biofilm in relation to culture volume ([1]; after 0.9 mg pure PTSO/liter culture, before start treatment 18): 0% | total dosage at which the biofilm became significantly thinner ([1]; mature biofilm in PBR, visual observation): 0.65 ul/l | total dosage at which disintegration / release of the biofilm becomes visible ([1]; mature biofilm in glass tube PBR, visual observation): 0.05 ul/l | MBEC (biofilm eradication) ([2]; St. aureus 074): 256 µg/mL | MBEC (biofilm eradication) ([2]; St. aureus ATCC 15564): 256 µg/mL | MBEC (biofilm eradication) ([2]; St. aureus ATCC 25923): 512 µg/mL | MBEC (biofilm eradication) (Streptococcus uberis [3]): 512 µg/mL | MBIC 90 ([4]; St. aureus 074): 128 µg/mL | MBIC 90 ([4]; St. aureus ATCC 15564): 128 µg/mL | MBIC 90 ([4]; St. aureus ATCC 25923): 128 µg/mL | MBIC 90 (Streptococcus uberis [5]): 128 µg/mL

CCCSSCCC [DPD, dipropyl disulfide]
state of the biofilm at the highest dosages (visual) ([1]; PBR, highest dosage(s) added): did not remove the remainder of the thin biofilm | Total (released from biofilm) colony forming units/ml, In culture supernatant [1, 11]: 3,403 units/ml (×1000) | Total colony forming units/ml, In biofilm [1, 11]: 0 units/ml (×1000) | % volume biofilm in relation to culture volume ([1]; after 208 mg pure DPD/liter culture, before start treatment 7): 0% | total addition at which the biofilm started to release from the glass ([1]; after dose 8, visual observation): 160 mg pure DPD/liter | Aerobic CFU's after 24 hours [1, 12]: 400000 ×1000 | Anaerobic CFU's after 24 hour [1, 12]: 45333 ×1000 | Fungal CFU's after 24 hours [1, 12]: 33333 ×1000 | Aerobic CFU's after 24 hours [1, 13]: 440000 ×1000 | Anaerobic CFU's after 24 hour [1, 13]: 43333 ×1000 | Fungal CFU's after 24 hours [1, 13]: 29000 ×1000 | Aerobic CFU's after 24 hours [1, 14]: 390000 ×1000 | Anaerobic CFU's after 24 hour [1, 14]: 43333 ×1000 | Fungal CFU's after 24 hours [1, 14]: 35000 ×1000 | Aerobic CFU's after 24 hours [1, 15]: 403333 ×1000 | Anaerobic CFU's after 24 hour [1, 15]: 39333 ×1000 | Fungal CFU's after 24 hours [1, 15]: 25333 ×1000 | Aerobic CFU's after 24 hours [1, 16]: 376667 ×1000 | Anaerobic CFU's after 24 hour [1, 16]: 40333 ×1000 | Fungal CFU's after 24 hours [1, 16]: 24000 ×1000 | Aerobic CFU's after 24 hours [1, 17]: 426667 ×1000 | Anaerobic CFU's after 24 hour [1, 17]: 37667 ×1000 | Fungal CFU's after 24 hours [1, 17]: 22333 ×1000 | Aerobic CFU's after 24 hours [1, 18]: 563333 ×1000 | Anaerobic CFU's after 24 hour [1, 18]: 43000 ×1000 | Fungal CFU's after 24 hours [1, 18]: 18333 ×1000 | Aerobic CFU's after 24 hours [1, 19]: 1766667 ×1000 | Anaerobic CFU's after 24 hour [1, 19]: 267000 ×1000 | Fungal CFU's after 24 hours [1, 19]: 18667 ×1000 | Aerobic CFU's after 24 hours [1, 20]: 1413333 ×1000 | Anaerobic CFU's after 24 hour [1, 20]: 340000 ×1000 | Fungal CFU's after 24 hours [1, 20]: 17000 ×1000 | Aerobic CFU's after 24 hours [1, 21]: 936667 ×1000 | Anaerobic CFU's after 24 hour [1, 21]: 100000 ×1000 | Fungal CFU's after 24 hours [1, 21]: 223333 ×1000 | Aerobic CFU's after 24 hours [1, 22]: 163333 ×1000 | Anaerobic CFU's after 24 hour [1, 22]: 35667 ×1000 | Fungal CFU's after 24 hours [1, 22]: 273333 ×1000 | Aerobic CFU's after 24 hours [1, 23]: 107333 ×1000 | Anaerobic CFU's after 24 hour [1, 23]: 19333 ×1000 | Fungal CFU's after 24 hours [1, 23]: 24333 ×1000 | Aerobic CFU's after 24 hours [1, 24]: 103333 ×1000 | Anaerobic CFU's after 24 hour [1, 24]: 9333 ×1000 | Fungal CFU's after 24 hours [1, 24]: 12667 ×1000 | Aerobic CFU's after 24 hours [1, 25]: 98333 ×1000 | Anaerobic CFU's after 24 hour [1, 25]: 5467 ×1000 | Fungal CFU's after 24 hours [1, 25]: 8000 ×1000 | total dosage up to which biofilm release continued ([1]; visual observation): 317 ul pure DPD/liter | MBEC (biofilm eradication) ([2]; St. aureus 074): 1024 µg/mL | MBEC (biofilm eradication) ([2]; St. aureus ATCC 15564): >1024 µg/mL | MBEC (biofilm eradication) ([2]; St. aureus ATCC 25923): >1024 µg/mL | MBEC (biofilm eradication) (Streptococcus uberis [3]): >1024 µg/mL | MBIC 90 ([4]; St. aureus 074): >1024 µg/mL | MBIC 90 ([4]; St. aureus ATCC 15564): >1024 µg/mL | MBIC 90 ([4]; St. aureus ATCC 25923): >1024 µg/mL | MBIC 90 (Streptococcus uberis [5]): >1024 µg/mL
